Data published in a melting point compilation (Tetko et al.; mined from patent text by program, amines drawn as free bases though some values may be those of a salt).

Row | melting point | SMILES
1 | 71 °C | CC(C)C1SCC(=O)CC1=O (stereo not drawn)
2 | 182 °C | CS(=O)(=O)CC(=O)N[C@H]1CC[C@H](CCN2CCN(c3nccc4ccoc34)CC2)CC1
3 | 168 to 172 °C | CCCCN(CCCC)c1ccc(C=CC=CC=CC2=C(C#N)C(=C(C#N)C#N)OC2(C)C(F)(F)F)c(OC)c1 (stereo not drawn)
4 | 217 to 220 °C | Nc1cc(Sc2cccc3cnccc23)c(F)cc1[N+](=O)[O-]
5 | 97 to 98 °C | COC(=O)c1ccc(Oc2cc(-n3nc(C)n(C(F)F)c3=O)c(F)cc2Cl)cc1
6 | 210 to 212 °C | CC(C)(C)C(=O)OCn1nnc(-c2cc(Br)ccc2NC(=O)c2cccc(S(=O)(=O)N3CCOCC3)c2)n1
7 | 55 to 56 °C | Nc1ccc(Cl)cc1C(=O)C(F)(F)Cl
8 | 156 to 157 °C | Cc1ccc(S(=O)(=O)Oc2ccc(S(=O)(=O)CC(=O)C(C)C)cc2)cc1
9 | 131 to 134 °C | CCOC(=O)N1CCN(c2cc3nc(C(C)(C)C)sc3cc2N=C=S)CC1
10 | 120 °C | CCC(O)C(O)c1ccc(OCc2ccc3ccccc3c2)c(OC)c1 (stereo not drawn)
11 | 64 to 66 °C | CCOC(=O)COc1ccc(CCl)cc1OC
12 | 161 to 162 °C | COC(=O)[C@H]1CN(c2ccc3c(c2)sc(=O)n3C(C)C)C(=O)O1
13 | 157 to 159 °C | Cc1ccc2c(c1)-c1csc(N)c1C2=O
14 | 168 to 171 °C | CC(CN1CCCCC1)Nc1ccnc2cc(Cl)ccc12 (racemic)
15 | > 320 °C | O=C(O)C(=O)Nc1cc(Cl)cc(NC(=O)C(=O)O)n1
16 | 310 to 312 °C | CN1CCN(Cc2ccc(C(=O)O)cc2)CC1
17 | 53 to 57 °C | COC(=O)COC(=O)c1ccc(OCC(=O)OC)cc1
18 | 144 to 145 °C | CC1(C)CC(c2ccc(Cl)cc2)=C(c2ccc(S(N)(=O)=O)cc2)C1
19 | 84 to 85 °C | CC(Oc1cc(C(F)(F)F)cc(C(F)(F)F)c1)C(N)=O (stereo not drawn)
20 | 155 to 159 °C | COC(=O)CCCNC(=O)c1cc(O)ccc1O
21 | 105 to 106 °C | Clc1ccc(-c2csc(NCc3cnc(NCc4ccccc4)s3)n2)cc1
22 | 256 to 259 °C | Cc1cccc(-c2nc(Nc3ccc(Cl)cc3)c3ccccc3n2)n1
23 | 127 to 128 °C | Cc1nnc(CN(C)C)n1-c1ccc(Br)cc1C(=O)c1ccccn1
24 | 129 to 132 °C | Cn1nc(-c2ccc(OC3CCN(C4CCCC4)CC3)cc2)ccc1=O
25 | 88 °C | COc1ccc(Oc2ccc(C(=O)CCC#N)cc2)cc1

Row | melting point | SMILES
26 | 159 to 161 °C | COc1cc(OC)nc(C2(C#N)OC(=O)c3c(Cl)cccc32)n1 (stereo not drawn)
27 | 147 to 148 °C | c1ccc(CCN2CCN(c3n[nH]c4c3CCCc3ccccc3-4)CC2)cc1
28 | 177 to 179 °C | CC(C)c1cccc(C(C)C)c1NC(=O)CNC(c1ccccc1)c1ccc([N+](=O)[O-])cc1 (stereo not drawn)
29 | 90 to 91 °C | CCOC(=O)c1ccc(/C=C(\C)c2ccc3c(c2)C(C)(C)CCC3(C)C)cc1
30 | 250 to 252 °C | CC1(C)CCC(C)(C)c2nc3c(nc21)CCc1c(-c2ccc(C(=O)O)cc2)nn(Cc2cccnc2)c1-3
31 | 160 to 162 °C | COCCN1CCC(c2ccc(C(=O)NC3(C(=O)NCC#N)CCCCC3)cc2)CC1
32 | 146 to 147 °C | COc1ccc2[nH]c(CC(C)C)c(C=O)c2c1
33 | 210 to 219 °C | CCOc1cc(O)c2cc(C(C)=O)ccc2n1
34 | 134 °C | CON1C(=O)CC2(CCN(C(=O)OCCBr)CC2)C1=O
35 | 147 to 152 °C | CC12CCC(C(=O)Nc3ccc(CC#N)cc3)(OC1=O)C2(C)C (stereo not drawn)
36 | 189 to 190 °C | O=[N+]([O-])c1cn2c(n1)O[C@@H](COc1ccc(N3CCC(Nc4ccc(OC(F)(F)F)cc4)CC3)cc1)CC2
37 | 120 to 122 °C | NCC(O)C(Oc1ccc(C(F)(F)F)cc1)c1ccccc1 (stereo not drawn)
38 | 176 °C | Cn1cnc(COc2nn3c(-c4ccccc4F)nnc3cc2C2CCC2)c1
39 | 303 °C | N#Cc1c(N2CCN(C(=O)c3ccco3)CC2)c2cc(Cl)cnc2[nH]c1=O
40 | 147 to 150 °C | COc1c(C)c(C)c(OC)c([N+](=O)[O-])c1[N+](=O)[O-]
41 | 135 °C | C#Cc1ncn2c(C(F)F)cc(-c3ccc(C(F)(F)F)cc3)nc12
42 | 251 to 254 °C | CCCc1nc2c(N)nc3cc(-c4cccc(C(=O)NC5CC5)c4)ccc3c2s1
43 | 183 to 184 °C | Cc1ccc(S(=O)(=O)NC(Cc2ccccc2)C(=O)Nc2c(C(C)C)cccc2C(C)C)cc1 (stereo not drawn)
44 | 275 °C | Cc1ccc(N2C(=O)C(O)=C(C(=O)c3ccc(OC(F)(F)F)cc3)C2c2ccc(Cn3ccnn3)cc2)nn1 (stereo not drawn)
45 | 180 to 182 °C | CC(=O)OC1(C(C)=O)CCC2C3CCC4=CC(=O)CCC4(C)C3(Br)C(F)CC21C (stereo not drawn)
46 | > 225 °C | Cc1nc(O)c(Br)cc1Br
47 | 253 to 255 °C | COC(=O)[C@H]1C[C@H](NC(=O)Nc2ccc(I)cc2)c2c(Cl)cc(Cl)cc2N1 (relative stereo)
48 | 120 to 121 °C | CCOc1cccc(CN2CCc3cc(O)ccc3C2)c1
49 | 85 to 87 °C | O=C1CCCc2cc(OCCCCl)ccc21
50 | 145 °C | CN(C)c1ccc(C2(c3ccc(N(C)C)cc3)Oc3ccccc3-c3[nH]c4ccccc4c32)cc1

Row | melting point | SMILES
51 | 184 to 186 °C | O=c1[nH]c2ncc(Cl)cc2o1
52 | 135 to 137 °C | O=C(O)CCCN(C(=O)c1ccc(Cl)cc1)c1ccccc1-c1ccccc1
53 | 273 to 278 °C | Cc1ccc(-c2ccc(C(=O)O)cc2)c(N)c1
54 | 130 to 132 °C | CCn1cncc1/C=C/c1cn(-c2ccccc2)nc1OCc1ccc(OCc2nc(-c3ccco3)oc2C)c(OC)c1
55 | > 250 °C | COCCOc1cc2ncc(C#N)c(O)c2cc1OCc1ccccc1
56 | 128 °C | CC(c1ncncc1Cl)C(O)(Cn1cncn1)c1ccc(F)cc1F (stereo not drawn)
57 | 260 to 261 °C | CC1(C)CC(N2CCCC2)=CC(=C(C#N)S(C)(=O)=O)C1
58 | 73 to 75 °C | CCn1c(-c2ccc(Cl)cc2)nn(C)c1=O
59 | 142 to 143 °C | Cc1ccccc1OC(Cc1ccc(OCCN(C)c2nc3ccccc3o2)cc1)C(=O)O (stereo not drawn)
60 | > 250 °C | N#Cc1c(O)[nH]c2cccnc12
61 | 153 to 154 °C | O=C(NC1=NCCCC1)Nc1ccccc1
62 | 80 to 90 °C | CCCCCCC(C(=O)O)n1ccc2cc(-c3cccc(OC)c3C(=O)O)ccc21 (stereo not drawn)
63 | 117 to 119 °C | CCOC(=O)c1cnc(Cc2ccc(OC)c(OC)c2)c2cc(OC)c(OC)cc12
64 | 108 to 110 °C | CCOC(=O)c1c(C)nc2c(c1N)c1c(n2Cc2ccc(OC)cc2)CCCC1
65 | 221 to 222 °C | O=C(O)/C=C/c1ccc(N2CCC3(CC2)OCCO3)cc1
66 | 138 to 140 °C | CN(C(=O)CCS(C)=O)c1nnc(-c2cccnc2)s1 (stereo not drawn)
67 | 77 to 78 °C | COc1c2c(c(OC)c(OC)c1OC)CCC(=O)CC2
68 | 226 to 228 °C | N#Cc1ccc(-c2ccc(S(=O)(=O)N(CCO)CCO)cc2)[nH]c1=O
69 | 99 to 101 °C | OCC1Cc2c(F)cccc2OC1CO (stereo not drawn)
70 | 173 to 174 °C | O=Cc1sccc1-c1noc2ccccc12
71 | 116 °C | COc1ccc2cc(C(Br)Br)ccc2c1
72 | 128 to 130 °C | CC(CS)C(=O)N(CC(=O)O)CC1CCCO1 (stereo not drawn)
73 | 242 °C | Cc1ccc(-c2cc(=S)ss2)nn1
74 | 183 °C | CC(=O)N[C@H]1CC[C@H](CCN2CCC(c3cccc4c3CCO4)CC2)CC1
75 | 196 to 197 °C | Clc1ccccc1-c1nc(-c2ccccc2)c(-c2ccccc2)[nH]1

Row | melting point | SMILES
76 | 205 to 206 °C | CC(=O)NC1Cc2cccc3cccc(c23)C1O (stereo not drawn)
77 | 221 to 223 °C | COC(=O)Cn1c(C(=O)O)cc2cc(C)cc(C)c21
78 | 157 to 159 °C | COc1cc(OC)nc(Oc2cccc3c2C(=O)SC3C)n1 (stereo not drawn)
79 | 120 to 122 °C | CCc1nc2ncnn2c(N[C@H]2CC[C@@H](C(C)(C)C)CC2)c1Cl
80 | 218 to 219 °C | CS(=O)(=O)c1nccn1CC(=O)O
81 | 143 to 145 °C | O=C(Cc1ccccc1)Nc1ccc(CN2C(=O)[C@H]3CCC[C@H]3N(C(=O)CN3C(=O)c4ccccc4C3=O)c3ccccc32)cc1 (relative stereo)
82 | 157 °C | CC(C)(C)NS(=O)(=O)c1ccc(Cl)c(CBr)c1Cl
83 | 233 °C | CC(C)(C)C(=O)Nc1cc2c(O)n(I)c(I)nc-2n1
84 | 128 to 130 °C | CC(C)(C)OC(=O)NCCn1cc(COc2ccc(C3=NC(=Nc4[nH]c(-c5ccc(O)cc5)cc4-c4ccccc4)C(c4ccccc4)=C3)cc2)nn1
85 | 50 to 52 °C | CCC(=O)c1cc(Cl)c(O)c(Cl)c1
86 | 207 to 208 °C | CCNC(=O)c1cc(NCn2nnc3ccccc32)ccc1[Si](C)(C)C
87 | 138 °C | CC(=NNC(=O)c1ccccc1)c1sc(C)nc1C
88 | 96 to 98 °C | CNc1cc(Br)cc(Sc2ccc([N+](=O)[O-])cc2)c1
89 | 168 to 171 °C | CCOC(=O)C(C)(C)Oc1ccc(CCNC(=O)CCc2cc(C(C)(C)C)c(O)c(C(C)(C)C)c2)cc1
90 | 124 to 126 °C | COC(=O)c1ccc(-c2ccc(Cl)cc2)nc1
91 | 206 to 208 °C | COC(=O)N1CC(=O)N(C)c2ccc(F)cc21
92 | 139 to 142 °C | O=C1NC(=O)C(Cc2ccc(OCC3CN(c4ccccn4)CCO3)cc2)S1 (stereo not drawn)
93 | 280 to 282 °C | O=C1CCc2ccc(NC(=O)c3cc4cccnc4n3Cc3cccc(F)c3)cc2N1
94 | 102 to 103 °C | COCOc1cc(C=O)ccc1OCc1nc(-c2ccco2)oc1C
95 | 57 to 60 °C | COC(=O)CSCc1cnc(OC)c([N+](=O)[O-])c1
96 | 217 to 218 °C | CC1(C)CC(=O)c2c(C(=O)Nc3ccsc3)c[nH]c2C1
97 | 164 to 166 °C | CCCCN(CCCC)c1ccc(C=CC2=CC(=CC=CC3=C(C#N)C(=C(C#N)C#N)OC3(c3ccccc3)C(F)(F)F)CC(C)(C)C2)c(OC)c1 (stereo not drawn)
98 | 165 to 170 °C | CN(C)c1ccc(S(=O)(=O)N2CCCCC2=O)cc1

Row | SMILES | melting point
99 | NC(=O)C1(Nc2ccccc2)CCN(C2CCCc3ccccc32)CC1 (stereo not drawn) | 186 to 187 °C
100 | CN1Cc2c(Br)ncn2-c2cccc(Cl)c2C1=O | 178 to 179 °C
101 | CN(C)C1(c2ccccc2)CCC(CNC(=O)NCCc2c[nH]c3ccc(F)cc23)CC1 (stereo not drawn) | 70 to 73 °C
102 | N#CC1CC2CCC(C1)N2Cc1ccccc1 (stereo not drawn) | 119 to 120 °C
103 | CCC1N=C(c2ccccc2Cl)c2cc(CCC(=O)OC)sc2NC1=O (stereo not drawn) | 187 to 189 °C
